Where a name gives a salt, the structure may show the parent alone.

Data set [1] can be described thus: Absorption maxima (λmax., Δλmax.) and extinction coefficient of substrates and liberated coloured materials. In kind it is physicochemical. Conditions: for λmax. (coloured material): coloured material liberated from the substrate; for Δλmax. = λmax. (coloured material) - λmax. (substrate): difference of the absorption maxima. The text has this:
Thus, for example, the difference of the absorption maxima of the known substrate γ-glutamyl-3-carboxy-4-nitroanilide (λmax. 317 nm) and of the coloured material obtained therefrom, i.e. 3-carboxy-4-nitroaniline(λmax. 380 nm) is 63 nm. In contradistinction thereto, the compounds according to the present invention of general formula (I) display substantially greater differences between the absorption spectra of the substrate and of the coloured material liberated enzymatically therefrom. As a rule, this difference is from 80 to 110 nm.
Δλmax. hereby means the difference between λmax. (coloured material)-λmax. (substrate).

The target of data set [2] is T1, γ-glutamyl transferase (γ-GT) (Homo sapiens, UniProt P19440).
T1 construct: host or cells: control serum
T1 sequence (P19440 381-569 limits assumed): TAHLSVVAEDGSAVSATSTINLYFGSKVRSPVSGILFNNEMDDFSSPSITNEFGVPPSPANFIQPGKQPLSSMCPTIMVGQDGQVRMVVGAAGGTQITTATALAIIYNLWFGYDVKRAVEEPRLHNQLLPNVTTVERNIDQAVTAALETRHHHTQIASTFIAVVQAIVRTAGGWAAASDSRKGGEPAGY
T1 sequence (P19440 1-380 limits assumed): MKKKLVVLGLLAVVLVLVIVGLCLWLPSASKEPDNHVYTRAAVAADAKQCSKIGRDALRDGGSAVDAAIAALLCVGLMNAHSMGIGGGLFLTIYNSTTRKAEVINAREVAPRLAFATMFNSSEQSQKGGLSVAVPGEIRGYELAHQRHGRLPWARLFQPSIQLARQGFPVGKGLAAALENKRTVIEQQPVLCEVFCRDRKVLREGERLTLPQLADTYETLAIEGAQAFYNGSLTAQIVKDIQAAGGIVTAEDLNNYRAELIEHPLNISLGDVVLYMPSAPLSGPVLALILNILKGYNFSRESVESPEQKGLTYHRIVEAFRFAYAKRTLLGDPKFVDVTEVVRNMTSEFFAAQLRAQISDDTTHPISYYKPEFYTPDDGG
As to the kind of experiment: Determination of the activity of γ-glutamyl transferase in a control serum at 25° C. with different substrates. Conditions: for extinction coefficient: at the measurement wavelength: 546 nm (S1, S8, S9), 578 nm (S5), 405 nm (L-Glupa C); for γ-GT activity found in control serum (U/liter at 25° C.): same control serum, substrate 1 mmole/liter, glycylglycine 150 mmole/liter, pH 7.9. In kind it is biochemical. The procedure:
(§1) 21.78 g. Glycylglycine were dissolved in about 900 ml. distilled water, the pH was adjusted to 7.9 with 2N aqueous sodium hydroxide solution, the amount of substrate calculated for a concentration of 1 mmole/liter was dissolved therein and the solution made up to 1000 ml. with distilled water. End concentration in the test:
(§2) 2.0 ml. of the reagent described in (a) was pipetted into a cuvette, tempered to 25° C. and mixed with 0.2 ml. of sample. The extinction increase per minute was measured at an apropriate wavelength.
(§3) One international unit (U) is the enzyme activity which converts 1 μmole of substrate per minute at 25° C. The activity of the γ-glutamyl transferase in U/liter in the sample is calculated according to the following equation: [formula] wherein ΔE/min is the extinction increase at an appropriate wavelength per minute, V is the batch volume in ml., v is the sample volume in ml., ε is the extinction coefficient in cm^2 μmol^-1 and d is the layer thickness of the cuvette in cm.

For data set [3] the following is noted: routine use; cited from earlier work.
Data set [4] addresses T2, γ-GT (Homo sapiens, UniProt P19440).
T2 construct: in three mixtures of human sera; from tissue; host or cells: human serum (three pools of different activity); also a control serum of unstated origin
As to the kind of experiment: Determination of the activity of γ-GT at 25° and 37° C. with S1 and L-Glupa C in human serum pools and control serum. In kind it is biochemical. Conditions: 25° C. As for the experimental part:
as §1, §2, §3
(§4) The substrates used were L-Glupa C and S1.

For data set [5], the system named is γ-GT. Described as above. In kind it is biochemical. Conditions: control serum PPU 516; 25° C. As for the experimental part: as §1, §2, §3, §4
Data set [6] concerns the target T2, γ-GT. The description is as above. In kind it is biochemical.
Data set [7] relates to γ-GT. The data set is described as above. In kind it is biochemical. Conditions: control serum PPU 516.

T2 sequence (P19440 1-380 limits assumed): as above
T2 sequence (P19440 381-569 limits assumed): as the sequence (P19440 381-569 limits assumed) above

Regarding `CCOc1ccc2nc(N=Nc3ccc(NC(=O)CCC(N)C(=O)O)cc3OCC(=O)O)sc2c1.N.N` (centres unmarked) [S13, 2-Amino-5-[[3-carboxymethoxy-4-(6-ethoxy-2-benzothiazolyl)-azophenyl]-amino]-5-oxopentanoic acid diammonium salt], the “λmax. (substrate)” value in data set [1] came out at 449 nm.
For `Cc1cc(NC(=O)CCC(N)C(=O)O)ccc1N=Nc1nc(C)c(C(=O)O)s1` (centres unmarked) [S7, 2-Amino-5-[[4-(5-carboxy-4-methyl-2-thiazolyl)-3-methylazophenyl]-amino]-5-oxopentanoic acid diammonium salt], the “λmax. (substrate)” value in data set [1] is listed as 412 nm.
Still for that read-out and setting: under `Cc1c(C#N)sc(N=Nc2ccc(NC(=O)CCC(N)C(=O)O)cc2OCC(=O)O)c1C#N.N.N` (centres unmarked) [S6, 2-Amino-5-[[3-carboxymethoxy-4-(2,4-dicyano-3-methyl-5-thienyl)-azophenyl]-amino]-5-oxopentanoic acid diammonium salt] stands 448 nm.
As for `Nc1ccc([N+](=O)[O-])c(C(=O)O)c1` [3-carboxy-4-nitroaniline, reference compound], in data set [1], the “λmax. (coloured material)” value is listed as 380 nm.
Regarding `Cc1nc(N=Nc2ccc(NC(=O)CCC(N)C(=O)O)cc2CCC(=O)O)sc1C#N.N.N` (centres unmarked) [S8, 2-Amino-5-[[3-(2-carboxyethyl)-4-(5-cyano-4-methyl-2-thiazolyl)-azophenyl]-amino]-5-oxopentanoic acid diammonium salt], in data set [1], the “Δλmax. = λmax. (coloured material) - λmax. (substrate)” value (“Δλmax. = λmax. (coloured material)” below) was 100 nm and the “λmax. (substrate)” value came out at 420 nm. For the same compound, in data set [2], the extinction coefficient was determined as 25.2 cm^2 μmol^-1 and the “γ-GT activity found in control serum (U/liter at 25° C.)” value (“γ-GT activity found in control serum” below) came out at 101 U/liter.
For the compound `NC(CCC(=O)Nc1ccc(N=Nc2ccc([N+](=O)[O-])cc2)c(C(=O)O)c1)C(=O)O` (centres unmarked) [S3, 2-amino-5-[(3-carboxyl-4-(4-nitrophenyl)-azophenyl]-amino]-5-oxopentnoic acid diammonium salt], the “λmax. (substrate)” value in data set [1] is recorded as 314 nm.
Consider `NC(CCC(=O)Nc1ccc([N+](=O)[O-])cc1)C(=O)O` (centres unmarked) [γ-glutamyl-p-nitroanilide], for which, in data set [3], the “solubility (known substrate)” value is given as “poor solubility” and the “stability (known substrate)” value was “instability”.
As to `C[n+]1ccsc1N=Nc1ccc(NC(=O)CCC(N)C(=O)[O-])cc1CCC(=O)O.N` (centres unmarked) [S10, 2-Amino-5-[[3-(2-carboxylatoethyl)-4-(3-methylthiazolium-2-yl)-azophenyl]-amino]-5-oxopentanoic acid ammonium salt], in data set [1], the “λmax. (coloured material)” value is listed as 486 nm and the “λmax. (substrate)” value is reported as 402 nm. Further, the “ε (coloured material)” value in data set [1] (printed after λmax. (coloured material)=486 nm) is recorded as 15.5 cm^2 μmol^-1.
As for “2-Amino-5-[[4-(2-cyano-4-nitrophenyl)-azo-3-(2-carboxyethoxy)-phenyl]-amino]-5-oxopentanoic acid diammonium salt [S2]”, the “λmax. (substrate)” value in data set [1] was determined as 414 nm.
With `N[C@@H](CCC(=O)Nc1ccc([N+](=O)[O-])c(C(=O)O)c1)C(=O)O` [L-Glupa C, L-γ-glutamyl-3-carboxy-4-nitroanilide, reference compound], in data set [4], the “γ-GT activity, human serum pool 1” value is 35 U/l; the “γ-GT activity, human serum pool 2” value is reported as 63 U/l; the “γ-GT activity, human serum pool 3” value is listed as 190 U/l. In addition, the “γ-GT activity, control serum PPU 516” value in data set [5] was determined as 139 U/l. Moreover, in data set [1], the “Δλmax. = λmax. (coloured material)” value was 63 nm and the “λmax. (substrate)” value is 317 nm. Further, in data set [2], the extinction coefficient was 9.5 cm^2 μmol^-1 and the “γ-GT activity found in control serum” value is 128 U/liter. For the same compound, in data set [6], the “γ-GT activity, human serum pool 1” value was determined as 57 U/l; the “γ-GT activity, human serum pool 2” value amounted to 106 U/l; the “γ-GT activity, human serum pool 3” value is reported as 323 U/l. For the same compound, in data set [7], the “γ-GT activity, control serum PPU 516” value is recorded as 211 U/l.
`N.N.NC(CCC(=O)Nc1ccc(N=Nc2cc(Cl)c([N+](=O)[O-])cc2Cl)c(OCC(=O)O)c1)C(=O)O` (centres unmarked) [S4, 2-Amino-5-[[4-(2,5-dichloro-4-nitrophenyl)-azo-3-(carboxymethoxy)-phenyl]-amino]-5-oxopentanoic acid diammonium salt]: the “λmax. (substrate)” value in data set [1] came to 402 nm.
As for `CCCCSc1nnc(N=Nc2ccc(NC(=O)CCC(N)C(=O)O)cc2OCC(=O)O)s1` (centres unmarked) [S12, 2-Amino-5-[[4-(2-butylthio-1,3,4-thiadiazol-5-yl)-3-carboxymethoxyazophenyl]-amino]-5-oxopentanoic acid diammonium salt], the “λmax. (substrate)” value in data set [1] is 424 nm.
As to `Cc1c(C#N)sc(N=Nc2ccc(NC(=O)CCC(N)C(=O)O)cc2CCC(=O)O)c1C#N.N.N` (centres unmarked) [S5, 2-Amino-5-[[3-(2-carboxyethyl)-4-(2,4-dicyano-3-methyl-5-thienyl)-azophenyl]-amino]-5-oxopentanoic acid diammonium salt], in data set [1], the “Δλmax. = λmax. (coloured material)” value is 106 nm and the “λmax. (substrate)” value was determined as 424 nm. Moreover, in data set [2], the extinction coefficient is given as 8.9 cm^2 μmol^-1 and the “γ-GT activity found in control serum” value was determined as 77 U/liter.
Consider `N.N.N#Cc1cc([N+](=O)[O-])ccc1N=Nc1ccc(NC(=O)CCC(N)C(=O)O)cc1CCC(=O)O` (centres unmarked) [S1, 2-Amino-5-[[4-(2-cyano-4-nitrophenyl)-azo-3-(2-carboxyethyl)-phenyl]-amino]-5-oxopentanoic acid diammonium salt], for which, in data set [4], the “γ-GT activity, human serum pool 1” value came out at 42 U/l; the “γ-GT activity, human serum pool 2” value is recorded as 76 U/l; the “γ-GT activity, human serum pool 3” value is on record as 220 U/l. Also, the “γ-GT activity, control serum PPU 516” value in data set [5] was determined as 134 U/l. In addition, in data set [1], the “Δλmax. = λmax. (coloured material)” value stood at 94 nm and the “λmax. (substrate)” value stood at 394 nm. For the same compound, in data set [2], the extinction coefficient is reported as 7.8 cm^2 μmol^-1 and the “γ-GT activity found in control serum” value worked out at 144 U/liter. Besides, in data set [6], the “γ-GT activity, human serum pool 1” value was found to be 96 U/l; the “γ-GT activity, human serum pool 2” value was 176 U/l; the “γ-GT activity, human serum pool 3” value is 490 U/l. For the same compound, the “γ-GT activity, control serum PPU 516” value in data set [7] is recorded as 268 U/l.
Turning to `N.N.NC(CCC(=O)Nc1ccc(N=Nc2nccs2)c(CCC(=O)O)c1)C(=O)O` (centres unmarked) [S9, 2-Amino-5-[[3-(2-carboxyethyl)-4-(2-thiazolyl)azophenyl]amino]-5-oxopentanoic acid diammonium salt], in data set [1], the “λmax. (substrate)” value is recorded as 394 nm. For the same compound, in data set [2], the extinction coefficient came to 2.8 cm^2 μmol^-1 and the “γ-GT activity found in control serum” value amounted to 160 U/liter.
Consider `N.N.NC(CCC(=O)Nc1ccc(N=Nc2snc3cc([N+](=O)[O-])ccc23)c(OCC(=O)O)c1)C(=O)O` (centres unmarked) [S11, 2-Amino-5-[[3-carboxymethoxy-4-(6-nitro-2,1-benzisothiazol-3-yl)-azophenyl]-amino]-5-oxopentanoic acid diammonium salt], for which, in data set [1], the “Δλmax. = λmax. (coloured material)” value was determined as 107 nm and the “λmax. (substrate)” value is 453 nm.

Source of the values: patent US4769447A, “Gamma-Glutamyl-4-azoanilides” (Boehringer Mannheim GmbH, priority 1986, dated 1988).
